Data taken from patent US20220218801A1, “COMBINATION GMCI AND ATRI CANCER TREATMENT” (Candel Therapeutics, Inc., priority 2019, published 2022).
pIC50: −log10 of the molar value.

Tests used:
glioma cell line (GL261) [1] = experiment: double-stranded DNA breaks by H2AX Ser139 staining (confocal microscopy); format: cell-based; conditions: 6 hours after addition of ATRi (IC50 concentration) and/or GCV 5 μg/ml, compared with untreated cells
Method: In another experiment, the frequency of double-stranded DNA breaks in glioma cells treated with GMCI, ATRi, or the combination. The formation of double-stranded DNA breaks was examined by staining the cells for H2AX-Ser139 as previously performed (Speranza et al. 2017).
At the start of the study (Day 0), glioma cell line (GL261; NCI-Frederick Cancer Research Tumor Repository, Frederick, Md.) is plated at a density of 12,500 cells per well of a 24 well plate containing glass coverslips. For the samples to which GMCI is administered, AdV-tk vector is added at a concentration of approximately 1.25×10^6 vp/ml (100 MOI). Starting on Day 1, to the samples being treated with GMCI, ganciclovir is added to a concentration of 5 μg/ml. In samples exposed to ATRi, starting at Day 1 AZD6738 was added at a concentration to the IC50 concentration of the drug. either in combination with GMCI or alone, as indicated. At a timepoint 6 hours after addition of the ATRi and/or GCV, the cells were fixed in 4% paraformaldehyde in phosphate buffered saline. After blocking with 5% donkey serum/0.5% Tween 20, 0.02% TX100/PBS for 1 hour at room temperature (RT), cells were washed 3 times with washing buffer (0.5% Tween 20, 0.02% TX100/PBS) and stained with H2AX Ser139 antibody (1:100). The next day the samples were washed and incubated for 2 hours with a fluorescently-tagged secondary antibody plus Hoechst 33342. […]

glioma cell line (GL261) [2] = experiment: glioma cell viability assay (Presto Blue, fluorescence); format: cell-based
Method: The combination of GMCI and ATRi (AZD6738) is examined for anti-cancer activity. A schematic of an experimental design to test the effect of combining of GMCI and ATR inhibitor combination on glioma cells is illustrated in FIG. 1. At the start of the study (Day 0), a glioma cell line (GL261; NCI-Frederick Cancer Research Tumor Repository, Frederick, Md.) is plated at a density of 5000 cells per well. For the samples on which GMCI is administered, on the following day (Day 1) AdV-tk vector is added at a concentration of approximately […] (100 MOI). Starting on Day 2, to the samples being treated with GMCI, ganciclovir is added to a concentration of 5 μg/ml. […] At Day 4, cell viability is assayed by the addition of a vial dye such as Presto Blue assay (Life Technologies) and quantified by fluorescence spectrometry.
Synergism was analyzed by the Combination Index (CI) calculation with the formula of Chou-Talalay (Chou 2010; Ting-Chao Chou 1984). CI values above 1.00 indicate antagonistic effect of combination agents, a CI of 1.00 indicates an additive effect, and CI values below 1.00 indicate synergistic effect.

## C[C@@H]1COCCN1c1cc(C2([S@](C)(=N)=O)CC2)nc(-c2cc[nH]c3nccc2-3)n1 [AZD6738]
Glioma cell line (GL261) [1]
  double-stranded DNA breaks / H2AX(Ser139) staining: Double-stranded DNA breaks occur
Glioma cell line (GL261) [1]; listed as ATRi
  double-stranded DNA breaks / H2AX(Ser139) staining: large increase in H2AX staining
Glioma cell line (GL261) [2]; GL261, single agents, AZD6738 at IC50 (1 μM) or ½ IC50 (0.5 μM) from Day 2, GMCI = AdV-tk 100 MOI + ganciclovir 5 μg/ml, read at Day 4
  cell viability (fluorescence normalized to no treatment): cytotoxic activity
Glioma cell line (GL261) [2]; Mus musculus, GL261 glioma cells, read-out: IC50 concentration
  pIC50: 6.00
